# Measured values as given in PubChem BioAssay (NCI).
#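 GI50: concentration for 50% inhibition of growth. TGI marks complete inhibition of growth.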
# Assays:
# Test in all cases: inhibition of tumour cell growth, NCI panel, 384-well format
# SK-MEL-5 melanoma = system: SK-MEL-5 melanoma
# MOLT-4 leukemia = system: MOLT-4 leukemia
# OVCAR-4 ovarian = system: OVCAR-4 ovarian
# NCI/ADR-RES ovarian = system: NCI/ADR-RES ovarian
# HS 578T breast = system: HS 578T breast
# RPMI-8226 leukemia = system: RPMI-8226 leukemia
# MDA-MB-435 melanoma = system: MDA-MB-435 melanoma
# KM12 colon = system: KM12 colon
# DU-145 prostate = system: DU-145 prostate
# IGROV1 ovarian = system: IGROV1 ovarian
# 786-0 renal = system: 786-0 renal
# M14 melanoma = system: M14 melanoma
# MDA-MB-231 breast = system: MDA-MB-231 breast
# K-562 leukemia = system: K-562 leukemia
# A498 renal = system: A498 renal
# NCI-H322M lung = system: NCI-H322M lung
# MALME-3M melanoma = system: MALME-3M melanoma
# HL-60(TB) leukemia = system: HL-60(TB) leukemia
# SK-MEL-2 melanoma = system: SK-MEL-2 melanoma
# UACC-257 melanoma = system: UACC-257 melanoma
# COLO 205 colon = system: COLO 205 colon
# MCF7 breast = system: MCF7 breast
# NCI-H226 lung = system: NCI-H226 lung
# HOP-62 NSCLC = system: HOP-62 NSCLC
# LOX IMVI melanoma = system: LOX IMVI melanoma
# OVCAR-3 ovarian = system: OVCAR-3 ovarian
# HT29 colon = system: HT29 colon
# UACC-62 melanoma = system: UACC-62 melanoma
# HCT-116 colon = system: HCT-116 colon
# TK-10 renal = system: TK-10 renal
# SK-MEL-28 melanoma = system: SK-MEL-28 melanoma
# OVCAR-8 ovarian = system: OVCAR-8 ovarian
# BT-549 breast = system: BT-549 breast
# HCC-2998 colon = system: HCC-2998 colon
# RXF 393 renal = system: RXF 393 renal
# SW-620 colon = system: SW-620 colon
# SK-OV-3 ovarian = system: SK-OV-3 ovarian
# A549 NSCLC = system: A549 NSCLC
# EKVX NSCLC = system: EKVX NSCLC
# HOP-92 NSCLC = system: HOP-92 NSCLC
# UO-31 renal = system: UO-31 renal
# PC-3 prostate = system: PC-3 prostate
# SNB-19 CNS = system: SNB-19 CNS
# T-47D breast = system: T-47D breast
# SNB-75 CNS = system: SNB-75 CNS
# CAKI-1 renal = system: CAKI-1 renal
# SF-268 CNS = system: SF-268 CNS
smiles,measurement,setting,value
c1ccc2c(NCCCN3CCN(CCCNc4c5ccccc5nc5ccccc45)CC3)c3ccccc3nc2c1,GI50,SK-MEL-5 melanoma,1.01 µM
same,TGI,SK-MEL-5 melanoma,2.24 µM
same,GI50,MOLT-4 leukemia,0.0232 µM
same,TGI,MOLT-4 leukemia,0.0509 µM
same,GI50,OVCAR-4 ovarian,0.446 µM
same,TGI,OVCAR-4 ovarian,1.22 µM
same,GI50,NCI/ADR-RES ovarian,5.28 µM
same,TGI,NCI/ADR-RES ovarian,> 100 µM
same,GI50,HS 578T breast,0.174 µM
same,TGI,HS 578T breast,1.17 µM
same,GI50,RPMI-8226 leukemia,0.134 µM
same,TGI,RPMI-8226 leukemia,0.291 µM
same,GI50,MDA-MB-435 melanoma,1.26 µM
same,TGI,MDA-MB-435 melanoma,2.54 µM
same,GI50,KM12 colon,0.539 µM
same,TGI,KM12 colon,2.26 µM
same,GI50,DU-145 prostate,0.683 µM
same,TGI,DU-145 prostate,3.49 µM
same,GI50,IGROV1 ovarian,0.228 µM
same,TGI,IGROV1 ovarian,1.43 µM
same,GI50,786-0 renal,0.204 µM
same,TGI,786-0 renal,1.47 µM
same,GI50,M14 melanoma,1.32 µM
same,TGI,M14 melanoma,2.63 µM
same,GI50,MDA-MB-231 breast,0.506 µM
same,TGI,MDA-MB-231 breast,2.06 µM
same,GI50,K-562 leukemia,1.11 µM
same,TGI,K-562 leukemia,3.6 µM
same,GI50,A498 renal,0.504 µM
same,TGI,A498 renal,2.05 µM
same,GI50,NCI-H322M lung,0.277 µM
same,TGI,NCI-H322M lung,1.38 µM
same,GI50,MALME-3M melanoma,0.702 µM
same,TGI,MALME-3M melanoma,1.88 µM
same,GI50,HL-60(TB) leukemia,0.108 µM
same,TGI,HL-60(TB) leukemia,0.243 µM
same,GI50,SK-MEL-2 melanoma,0.261 µM
same,TGI,SK-MEL-2 melanoma,0.434 µM
same,GI50,UACC-257 melanoma,1.39 µM
same,TGI,UACC-257 melanoma,2.7 µM
same,GI50,COLO 205 colon,1.28 µM
same,TGI,COLO 205 colon,3.06 µM
same,GI50,MCF7 breast,0.208 µM
same,TGI,MCF7 breast,0.909 µM
same,GI50,NCI-H226 lung,0.161 µM
same,TGI,NCI-H226 lung,1.19 µM
same,GI50,HOP-62 NSCLC,0.0964 µM
same,TGI,HOP-62 NSCLC,0.463 µM
same,GI50,LOX IMVI melanoma,0.665 µM
same,TGI,LOX IMVI melanoma,1.86 µM
same,GI50,OVCAR-3 ovarian,0.651 µM
same,TGI,OVCAR-3 ovarian,2.12 µM
same,GI50,HT29 colon,0.339 µM
same,TGI,HT29 colon,1.53 µM
same,GI50,UACC-62 melanoma,0.336 µM
same,TGI,UACC-62 melanoma,1.15 µM
same,GI50,HCT-116 colon,0.267 µM
same,TGI,HCT-116 colon,1.28 µM
same,GI50,TK-10 renal,0.605 µM
same,TGI,TK-10 renal,3.16 µM
same,GI50,SK-MEL-28 melanoma,1.82 µM
same,TGI,SK-MEL-28 melanoma,3.24 µM
same,GI50,OVCAR-8 ovarian,0.296 µM
same,TGI,OVCAR-8 ovarian,1.56 µM
same,GI50,BT-549 breast,1.2 µM
same,TGI,BT-549 breast,2.57 µM
same,GI50,HCC-2998 colon,0.391 µM
same,TGI,HCC-2998 colon,1.51 µM
same,GI50,RXF 393 renal,0.421 µM
same,TGI,RXF 393 renal,1.46 µM
same,GI50,SW-620 colon,0.452 µM
same,TGI,SW-620 colon,2.35 µM
same,GI50,SK-OV-3 ovarian,0.458 µM
same,TGI,SK-OV-3 ovarian,2.45 µM
same,GI50,A549 NSCLC,0.445 µM
same,TGI,A549 NSCLC,1.93 µM
same,GI50,EKVX NSCLC,1.33 µM
same,TGI,EKVX NSCLC,3.95 µM
same,GI50,HOP-92 NSCLC,0.425 µM
same,TGI,HOP-92 NSCLC,2.45 µM
same,GI50,UO-31 renal,1.78 µM
same,TGI,UO-31 renal,4.05 µM
same,GI50,PC-3 prostate,1.39 µM
same,TGI,PC-3 prostate,3.75 µM
same,GI50,SNB-19 CNS,0.433 µM
same,TGI,SNB-19 CNS,6.93 µM
same,GI50,T-47D breast,1.1 µM
same,TGI,T-47D breast,3.61 µM
same,GI50,SNB-75 CNS,0.361 µM
same,TGI,SNB-75 CNS,1.41 µM
same,GI50,CAKI-1 renal,0.929 µM
same,TGI,CAKI-1 renal,4.69 µM
same,GI50,SF-268 CNS,0.301 µM
same,TGI,SF-268 CNS,1.19 µM
CN1CCN(c2ccc(-c3cccc(CN4CCOCC4)c3)cc2NC(=O)c2c[nH]c(=O)cc2C(F)(F)F)CC1,GI50,SK-MEL-5 melanoma,13.6 µM
same,TGI,SK-MEL-5 melanoma,26.6 µM
same,GI50,MOLT-4 leukemia,5.86 µM
same,TGI,MOLT-4 leukemia,11.5 µM
same,GI50,OVCAR-4 ovarian,50.4 µM
same,TGI,OVCAR-4 ovarian,> 100 µM
same,GI50,NCI/ADR-RES ovarian,> 58.1 µM
same,TGI,NCI/ADR-RES ovarian,> 100 µM
same,GI50,HS 578T breast,12.2 µM
same,TGI,HS 578T breast,34.4 µM
same,GI50,RPMI-8226 leukemia,17.9 µM
same,TGI,RPMI-8226 leukemia,43.4 µM
same,GI50,MDA-MB-435 melanoma,31.7 µM
same,TGI,MDA-MB-435 melanoma,> 100 µM
same,GI50,KM12 colon,15.9 µM
same,TGI,KM12 colon,> 87.6 µM
same,GI50,DU-145 prostate,19.5 µM
same,TGI,DU-145 prostate,> 100 µM
same,GI50,IGROV1 ovarian,31.3 µM
same,TGI,IGROV1 ovarian,98.2 µM
same,GI50,786-0 renal,10.4 µM
same,TGI,786-0 renal,34.2 µM
same,GI50,M14 melanoma,16 µM
same,TGI,M14 melanoma,29.8 µM
same,GI50,MDA-MB-231 breast,25.6 µM
same,TGI,MDA-MB-231 breast,> 94 µM
same,GI50,K-562 leukemia,12.3 µM
same,TGI,K-562 leukemia,25.3 µM
same,GI50,A498 renal,17.3 µM
same,TGI,A498 renal,40.7 µM
same,GI50,NCI-H322M lung,53.3 µM
same,TGI,NCI-H322M lung,> 100 µM
same,GI50,MALME-3M melanoma,14.7 µM
same,TGI,MALME-3M melanoma,28.1 µM
same,GI50,HL-60(TB) leukemia,8.87 µM
same,TGI,HL-60(TB) leukemia,20.1 µM
same,GI50,SK-MEL-2 melanoma,20.9 µM
same,TGI,SK-MEL-2 melanoma,43.3 µM
same,GI50,UACC-257 melanoma,15.3 µM
same,TGI,UACC-257 melanoma,28.7 µM
same,GI50,COLO 205 colon,8.59 µM
same,TGI,COLO 205 colon,> 89 µM
same,GI50,MCF7 breast,16.8 µM
same,TGI,MCF7 breast,> 62.7 µM
same,GI50,NCI-H226 lung,52.5 µM
same,TGI,NCI-H226 lung,> 100 µM
same,GI50,HOP-62 NSCLC,21 µM
same,TGI,HOP-62 NSCLC,> 65.3 µM
same,GI50,LOX IMVI melanoma,9.13 µM
same,TGI,LOX IMVI melanoma,23 µM
same,GI50,OVCAR-3 ovarian,18.9 µM
same,TGI,OVCAR-3 ovarian,> 74.4 µM
same,GI50,HT29 colon,14.2 µM
same,TGI,HT29 colon,32 µM
same,GI50,UACC-62 melanoma,19 µM
same,TGI,UACC-62 melanoma,62.8 µM
same,GI50,HCT-116 colon,12.7 µM
same,TGI,HCT-116 colon,> 78.2 µM
same,GI50,TK-10 renal,30.5 µM
same,TGI,TK-10 renal,> 90.4 µM
same,GI50,SK-MEL-28 melanoma,17 µM
same,TGI,SK-MEL-28 melanoma,31 µM
same,GI50,OVCAR-8 ovarian,18.3 µM
same,TGI,OVCAR-8 ovarian,> 100 µM
same,GI50,BT-549 breast,26.5 µM
same,TGI,BT-549 breast,> 68.5 µM
same,GI50,HCC-2998 colon,29.9 µM
same,TGI,HCC-2998 colon,> 63.9 µM
same,GI50,RXF 393 renal,11.4 µM
same,TGI,RXF 393 renal,33.3 µM
same,GI50,SW-620 colon,11.7 µM
same,TGI,SW-620 colon,> 45.2 µM
same,GI50,SK-OV-3 ovarian,> 61.1 µM
same,TGI,SK-OV-3 ovarian,> 100 µM
same,GI50,A549 NSCLC,14.4 µM
same,TGI,A549 NSCLC,> 100 µM
same,GI50,EKVX NSCLC,33.5 µM
same,TGI,EKVX NSCLC,> 100 µM
same,GI50,HOP-92 NSCLC,24.9 µM
same,TGI,HOP-92 NSCLC,> 77.4 µM
same,GI50,UO-31 renal,14.5 µM
same,TGI,UO-31 renal,> 100 µM
same,GI50,PC-3 prostate,27 µM
same,TGI,PC-3 prostate,> 94.6 µM
same,GI50,SNB-19 CNS,46.3 µM
same,TGI,SNB-19 CNS,> 100 µM
same,GI50,T-47D breast,23.1 µM
same,TGI,T-47D breast,> 88.9 µM
same,GI50,SNB-75 CNS,22.2 µM
same,TGI,SNB-75 CNS,> 68.3 µM
same,GI50,CAKI-1 renal,25 µM
same,TGI,CAKI-1 renal,> 100 µM
same,GI50,SF-268 CNS,14.7 µM
same,TGI,SF-268 CNS,> 29.6 µM
